“Also recorded” adds a separate entry of the source. Where a SMILES comes first, the peptide text is derived from it. Bridges are numbered along the chain shown (N, C = ends). [ ]: non-standard residue; d: D form. dTic = O=C(O)[C@H]1Cc2ccccc2CN1; Cha = N[C@@H](CC1CCCCC1)C(=O)O
Key:
hNpr1 = molecular target: T1, hNpr1 (Homo sapiens, UniProt P16066); assay: GloSensor assay in 96-well format, HEK-hNpr1-cGMP-sensor cells; format: cell-based; settings: 5 μM antagonist, increasing hNppa; GloSensor and membrane cyclase assays (FIGS. 5B-C)
T1 sequence (P16066 33-1061): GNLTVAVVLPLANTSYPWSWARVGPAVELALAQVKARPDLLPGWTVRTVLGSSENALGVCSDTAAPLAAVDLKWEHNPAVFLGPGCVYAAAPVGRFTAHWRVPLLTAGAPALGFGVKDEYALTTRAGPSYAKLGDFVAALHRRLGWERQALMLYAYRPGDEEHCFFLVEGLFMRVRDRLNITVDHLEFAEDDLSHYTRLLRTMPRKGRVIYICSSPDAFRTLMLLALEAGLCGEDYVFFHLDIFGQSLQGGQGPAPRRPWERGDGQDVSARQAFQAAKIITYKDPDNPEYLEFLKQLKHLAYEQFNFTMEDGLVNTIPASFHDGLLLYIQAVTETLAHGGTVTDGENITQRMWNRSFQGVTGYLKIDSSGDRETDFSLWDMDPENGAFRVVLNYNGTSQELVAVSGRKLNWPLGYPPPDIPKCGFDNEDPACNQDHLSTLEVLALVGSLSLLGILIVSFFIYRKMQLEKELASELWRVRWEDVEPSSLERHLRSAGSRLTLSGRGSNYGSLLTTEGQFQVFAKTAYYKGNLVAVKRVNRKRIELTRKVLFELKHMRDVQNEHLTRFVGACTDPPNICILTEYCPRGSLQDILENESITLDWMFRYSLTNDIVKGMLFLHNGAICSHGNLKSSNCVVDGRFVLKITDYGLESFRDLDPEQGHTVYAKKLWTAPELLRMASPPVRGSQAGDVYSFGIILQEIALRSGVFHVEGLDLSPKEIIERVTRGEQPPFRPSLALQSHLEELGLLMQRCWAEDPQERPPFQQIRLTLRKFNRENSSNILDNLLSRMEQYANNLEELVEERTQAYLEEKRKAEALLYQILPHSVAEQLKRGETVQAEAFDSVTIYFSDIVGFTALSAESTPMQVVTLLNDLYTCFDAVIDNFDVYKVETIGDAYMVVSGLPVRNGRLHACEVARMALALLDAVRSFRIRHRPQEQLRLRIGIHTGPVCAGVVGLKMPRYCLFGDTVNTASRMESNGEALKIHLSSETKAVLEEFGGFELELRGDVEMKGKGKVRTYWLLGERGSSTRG
Procedure: (§1) Before the measurement (24 hours in advance), 3×10^4 cells were seeded into white 96-well plates (PerkinElmer, Waltham, Mass.), coated with 0.1% poly(D-lysine), and assays conducted as recommended by the manufacturer (Promega). Medium was aspirated and cells were loaded for two hours at room temperature with 2% GoSensor™ reagent diluted in CO2-independent media (ThermoFisher) supplemented with 2 mM L-glutamine and 10% FBS (assay medium). Luminescence was measured on a BioTek Synergy™ NEO (Winooski, Vt.) plate reader at room temperature. After a baseline measurement of 3-5 minutes, assay medium as a control or assay medium with agonist was manually added, and luminescence was measured for 30 minutes at ˜ 1/60 Hz. For compounds tested for Npr1 and Npr2 inhibition, the compounds were added after baseline measurements, and luminescence was read for 5 minutes before addition of agonist. Luminescence was then normalized to baseline measurements and plotted against the time. Ligand-induced changes of cGMP production were quantified by determining the area under the curve. To determine efficacy and potency of agonists, ligand-induced changes were normalized to medium only addition and plotted against the ligand concentration. […] To quantify […] of compounds, compound-induced changes of agonist-induced cGMP production were normalized to vehicle controls, plotted against compound concentration, and fit with a four-parameter logistic regression. Effects of A-71915 on basal mNpr1 activity were fitted with a bell-shaped regression (equation indicated below).
Additional screens of the fifteen candidates corroborated hNpr1 inhibition. In particular, HEK-hNpr1-cGMP-sensor cells were seeded in 96-wells and stimulated with 60 pM hNppa 5 minutes after addition of candidate compounds or A-71915 and luminescence was measured for 30 minutes. Inhibitors were titrated to calculate apparent potency (IC50) and efficacy (Imax) of inhibition of hNppa-induced cGMP production.

mice = settings: reported; cited from earlier work
mNpr1 = molecular target: T2, mNpr1 (Mus musculus, UniProt P18293); assay: GloSensor assay, HEK-293 cells transiently expressing mNpr1 and pGS-40F; format: cell-based; settings: no agonist
T2 construct: host or cells: HEK-293, transient co-transfection with pGS-40F
T2 sequence (P18293 29-1057): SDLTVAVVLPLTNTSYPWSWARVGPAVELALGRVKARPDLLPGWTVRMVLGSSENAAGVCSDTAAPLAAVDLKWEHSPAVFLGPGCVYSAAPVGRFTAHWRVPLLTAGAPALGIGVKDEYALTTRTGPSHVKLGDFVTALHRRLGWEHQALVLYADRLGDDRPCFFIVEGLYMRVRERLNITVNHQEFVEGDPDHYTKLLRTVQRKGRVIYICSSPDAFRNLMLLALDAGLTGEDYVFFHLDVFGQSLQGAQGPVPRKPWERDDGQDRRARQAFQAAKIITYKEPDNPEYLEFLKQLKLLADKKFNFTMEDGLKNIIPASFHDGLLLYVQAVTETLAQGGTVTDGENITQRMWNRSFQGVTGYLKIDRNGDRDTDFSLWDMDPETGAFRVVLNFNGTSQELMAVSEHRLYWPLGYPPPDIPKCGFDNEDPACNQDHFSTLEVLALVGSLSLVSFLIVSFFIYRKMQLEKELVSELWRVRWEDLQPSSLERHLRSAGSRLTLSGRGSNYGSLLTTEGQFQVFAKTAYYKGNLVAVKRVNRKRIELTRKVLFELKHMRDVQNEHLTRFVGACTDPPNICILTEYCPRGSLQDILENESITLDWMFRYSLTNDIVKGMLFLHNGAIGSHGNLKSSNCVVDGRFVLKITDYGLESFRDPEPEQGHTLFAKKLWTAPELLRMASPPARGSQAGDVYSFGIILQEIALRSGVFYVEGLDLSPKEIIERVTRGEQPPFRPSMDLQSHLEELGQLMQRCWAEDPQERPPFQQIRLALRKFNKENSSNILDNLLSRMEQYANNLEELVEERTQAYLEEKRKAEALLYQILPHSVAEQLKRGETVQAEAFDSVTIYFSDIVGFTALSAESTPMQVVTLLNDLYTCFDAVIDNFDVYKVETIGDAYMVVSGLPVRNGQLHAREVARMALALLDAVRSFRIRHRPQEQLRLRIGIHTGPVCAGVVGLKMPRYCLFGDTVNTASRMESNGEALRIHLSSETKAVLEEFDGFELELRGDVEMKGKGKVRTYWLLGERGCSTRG
Procedure: HEK-293 cells (American Type Culture Collection “ATTC,” Manassas, Va.) were cultured in DMEM/F12 supplemented with 2 mM L-glutamine, 10% FBS, 100 U/ml penicillin, and 100 μg/ml streptomycin. For transient expression, 8×10^5 cells were seeded in 6-wells, cultured for 24 hours, and then transfected using TransIT®-293 (Mirus, Madison, Wis.) according to the manufacturer's instructions. After transfection (48 hours), cells were used to measure intracellular cGMP production. HEK-293 cell clones stably expressing pGloSensor™-40F alone (HEK-cGMP-sensor cells) or in addition, human Npr1 (“hNpr1”) (HEK-hNpr1-cGMP-sensor cells) or human Npr2 (HEK-hNpr2-cGMP-sensor cells) were generated by co-transfection with pEAK8-GFP and selection with 1 μg/ml puromycin. Stable expression of transgenes was verified by measuring ligand-induced cGMP production with the cGMP biosensor.
as §1
Because the Npr1 receptor is a ligand-dependent guanylate cyclase, measuring agonist-induced changes in intracellular cGMP levels was used to examine inhibition of Npr1. To measure the production of cGMP by Npr1, a circular permutated Firefly luciferase molecule which was functionally linked to the cGMP binding domain of human PDE5 (GloSensor™ technology pGS-40F) was used, as described in Example 1. This reporter molecule together with a luciferase substrate (GoSensor™ reagent) and a sensitive method for detection of luciferase activity (emitted light) permitted real-time measurement of cGMP levels in live cells (FIG. 1A). The cGMP sensor was expressed in HEK293 cells and luciferase activity after stimulation with the NO-donor sodium nitroprusside (SNP), which activates ubiquitously expressed soluble guanylate cyclases, was examined. […] Next, mNpr1 and the cGMP sensor were transiently expressed in HEK293 cells and agonist dependent receptor activation was examined. […] Next, the effects of A-71915 on mNpr1 were tested.
For Table 6, HEK-293 cells transiently expressing mNpr1 and pGS-40F were stimulated with 1 nM mNppb 5 minutes after addition of candidate compounds or A-71915 and luminescence was measured for 30 minutes. Inhibitors were titrated to calculate apparent IC50 values, as described in methods.

Row | Molecule | Effect on hNppa concentration-response at fixed antagonist concentration (hNpr1) | Block of acute itch responses elicited by intradermal pruritogens (mice) | Effect on basal mNpr1 activity in the absence of natriuretic peptides (mNpr1)
1 | CC[C@H](C)[C@@H]1NC(=O)[C@H](CCCNC(=N)N)NC(=O)CNC(=O)CNC(=O)[C@H](CC2CCCCC2)NC(=O)[C@@H](NC(=O)[C@@H](N)CCCNC(=N)N)CSSC[C@@H](C(N)=O)NC(=O)[C@H](CCCNC(=N)N)NC(=O)[C@H]2Cc3ccccc3CN2C(=O)[C@H]([C@@H](C)CC)NC(=O)[C@H](CCCNC(=N)N)NC(=O)[C@H](CC(=O)O)NC1=O [Compound A-71915, reference compound] (H-RC[Cha]GGRIDRI[dTic]RC-NH2; disulfide 2-13; N-terminus and C-terminus assumed) | right-shift in hNppA potency without any effect on maximal efficacy | does not block acute itch responses | partial agonist; also recorded: directly stimulates basal mNpr1 activity
2 | 1-cyclohexyl-3-(cyclopropylmethyl)-N-((3-methylisoxazol-5-yl)methyl)-2-oxo-2,3-dihydro-1H-benzo[d]imidazole-5-carboxamide [JS-11] | reduced maximal responses even at extremely high hNppa concentrations |  | 

— patent publication US11324725B2, “Compositions and methods for the inhibition of pruritus” (The United States of America, as represented by the …, priority 2017, dated 2022)
